# Assay results published in ChEMBL document CHEMBL1649182, “Binding of faropenem and other beta-lactam agents to penicillin-binding proteins of pneumococci with various beta-lactam susceptibilities” (Antimicrob Agents Chemother, 2009).
# System: Streptococcus pneumoniae
# Assay: Antimicrobial activity against penicillin-intermediate Streptococcus pneumoniae 3676 by CLSI method
# Format: functional
row,Compound,MIC
1,CC1(C)S[C@@H]2[C@H](NC(=O)[C@H](N)c3ccc(O)cc3)C(=O)N2[C@H]1C(=O)O [AMOXICILLIN],0.03 mg/L
2,CO/N=C(\C(=O)N[C@@H]1C(=O)N2C(C(=O)O)=C(COC(N)=O)CS[C@H]12)c1ccco1 [CEFUROXIME],0.125 mg/L
3,C[C@@H](O)[C@H]1C(=O)N2C(C(=O)O)=C([C@H]3CCCO3)S[C@H]12 [FAROPENEM],0.125 mg/L
4,C[C@@H](O)[C@H]1C(=O)N2C(C(=O)O)=C(SCCNC=N)C[C@H]12 [IMIPENEM ANHYDROUS],0.016 mg/L
5,CC1(C)S[C@@H]2[C@H](NC(=O)Cc3ccccc3)C(=O)N2[C@H]1C(=O)O [PENICILLIN G],0.25 mg/L

# System: Streptococcus pneumoniae
# Assay: Antimicrobial activity against Streptococcus pneumoniae serotype 19A
# Format: functional
row,Compound,MIC90
1,C[C@@H](O)[C@H]1C(=O)N2C(C(=O)O)=C([C@H]3CCCO3)S[C@H]12 [FAROPENEM],1 mg/L
